# Measurements reported in patent US20220331442A1, “ANTIBODY-BIOMOLECULE CONJUGATES LINKED THROUGH MULTIFUNCTIONAL MACROMOLECULE AND USES THEREOF” (LEVIM BIOTECH LLP, priority 2018, published 2022).
# How the values were obtained:
# MTT cytotoxicity assay = format: cell-based; conditions: human, H23 NSCLC cells; gefitinib alone at 50 μM, FIG. 21(b); read-out: Loss of viability of H23 cells
# H23 NSCLC cells = experiment: MTT cytotoxicity assay; format: cell-based; conditions: gefitinib alone, up to a concentration of 25 μM, FIG. 21(b)
smiles,measurement,setting,value
COc1cc2ncnc(Nc3ccc(F)c(Cl)c3)c2cc1OCCCN1CCOCC1 [gefitinib],cytotoxicity at 50 μM,MTT cytotoxicity assay,70%
same,Cytotoxicity (MTT),H23 NSCLC cells,no toxicity
